Active and inactive are the calls of the source. The rule behind the calls is not given here.
Target: Quadruplex DNA
Experiment: Binding affinity to G-quadruplex DNA pu22 (unknown origin) by fluorescence spectroscopic analysis
Assay type: nucleic-acid assay
Conditions: not given

SMILES	Kd [µM]
C[n+]1c(/C=C/c2ccc3c(c2)c2ccccc2n3Cc2ccccc2)[se]c2ccccc21.[I-]	0.9

Tested on: HepG2
Experiment: Cytotoxicity against human HepG2 cells assessed as reduction in cell viability incubated for 48 hrs by MTT assay
Assay type: functional, cell-based
Conditions: HepG2, 48 h

SMILES	IC50 [µM]
C[n+]1c(/C=C/c2ccc3c(c2)c2ccccc2n3Cc2ccccc2)[se]c2ccccc21.[I-]	3.5

Tested on: HCT-116
Experiment: Cytotoxicity against human HCT-116 cells assessed as reduction in cell viability incubated for 48 hrs by MTT assay
Assay type: functional, cell-based
Conditions: HCT-116, 48 h

SMILES	IC50 [µM]
C[n+]1c(/C=C/c2ccc3c(c2)c2ccccc2n3Cc2ccccc2)[se]c2ccccc21.[I-]	4.1

Tested on: not listed separately
Experiment: Cytotoxicity against human NCM460 cells assessed as reduction in cell viability incubated for 48 hrs by MTT assay
Assay type: toxicity, cell-based
Conditions: not given

SMILES	IC50 at 48 h [µM]
C[n+]1c(/C=C/c2ccc3c(c2)c2ccccc2n3Cc2ccccc2)[se]c2ccccc21.[I-]	77.6

Target: Quadruplex DNA
Experiment: Binding affinity to G-quadruplex DNA pu22 mutant (unknown origin) by fluorescence spectroscopic analysis
Assay type: nucleic-acid assay
Conditions: not given

SMILES	Kd [µM]
C[n+]1c(/C=C/c2ccc3c(c2)c2ccccc2n3Cc2ccccc2)[se]c2ccccc21.[I-]	> 20

Target: Quadruplex DNA
Experiment: Binding affinity to G-quadruplex DNA c-kit1 (unknown origin) by fluorescence spectroscopic analysis
Assay type: nucleic-acid assay
Conditions: not given

SMILES	Kd [µM]
C[n+]1c(/C=C/c2ccc3c(c2)c2ccccc2n3Cc2ccccc2)[se]c2ccccc21.[I-]	9.6

Target: Quadruplex DNA
Experiment: Binding affinity to G-quadruplex DNA VEGF (unknown origin) by fluorescence spectroscopic analysis
Assay type: nucleic-acid assay
Conditions: not given

SMILES	Kd [µM]
C[n+]1c(/C=C/c2ccc3c(c2)c2ccccc2n3Cc2ccccc2)[se]c2ccccc21.[I-]	17.9

Target: Quadruplex DNA
Experiment: Binding affinity to G-quadruplex DNA HRAS (unknown origin) by fluorescence spectroscopic analysis
Assay type: nucleic-acid assay
Conditions: not given

SMILES	Kd [µM]
C[n+]1c(/C=C/c2ccc3c(c2)c2ccccc2n3Cc2ccccc2)[se]c2ccccc21.[I-]	> 20

Target: Quadruplex DNA
Experiment: Binding affinity to G-quadruplex DNA htg22 (unknown origin) by fluorescence spectroscopic analysis
Assay type: nucleic-acid assay
Conditions: not given

SMILES	Kd [µM]
C[n+]1c(/C=C/c2ccc3c(c2)c2ccccc2n3Cc2ccccc2)[se]c2ccccc21.[I-]	> 20

Target: Quadruplex DNA
Experiment: Binding affinity to G-quadruplex DNA ds26 (unknown origin) by fluorescence spectroscopic analysis
Assay type: nucleic-acid assay
Conditions: not given

SMILES	Kd [µM]
C[n+]1c(/C=C/c2ccc3c(c2)c2ccccc2n3Cc2ccccc2)[se]c2ccccc21.[I-]	> 20

Tested on: HepG2
Experiment: Inhibition of c-MYC transcription in human HepG2 cells up to 10 uM incubated for 48 hrs by RT-qPCR analysis
Assay type: functional, cell-based
Conditions: not given

SMILES	inhibition
C[n+]1c(/C=C/c2ccc3c(c2)c2ccccc2n3Cc2ccccc2)[se]c2ccccc21.[I-]	Active

Tested on: HepG2
Experiment: Downregulation of c-MYC expression level in human HepG2 cells incubated for 48 hrs by Western blotting analysis
Assay type: functional, cell-based
Conditions: dose 0-10 µM

SMILES	Activity
C[n+]1c(/C=C/c2ccc3c(c2)c2ccccc2n3Cc2ccccc2)[se]c2ccccc21.[I-]	Dose-Dependent Effect

Tested on: not listed separately
Experiment: Cytotoxicity against human L02 cells assessed as reduction in cell viability incubated for 48 hrs by MTT assay
Assay type: toxicity, cell-based
Conditions: not given

SMILES	IC50 at 48 h [µM]
C[n+]1c(/C=C/c2ccc3c(c2)c2ccccc2n3Cc2ccccc2)[se]c2ccccc21.[I-]	> 100

Tested on: CA46
Experiment: Inhibition of c-MYC G-quadruplex exon 1 transcription in human CA46 cells incubated for 48 hrs by RT-qPCR analysis
Assay type: functional, cell-based
Conditions: dose 1.25-2.5 µM

SMILES	inhibition
C[n+]1c(/C=C/c2ccc3c(c2)c2ccccc2n3Cc2ccccc2)[se]c2ccccc21.[I-]	Dose-Dependent Effect

Tested on: not listed separately
Experiment: Disruption of NM23-H2/c-MYC G quadruplex DNA (unknown origin) interaction incubated for 1 hr by ELISA
Conditions: not given

SMILES	IC50 [µM]
C[n+]1c(/C=C/c2ccc3c(c2)c2ccccc2n3Cc2ccccc2)[se]c2ccccc21.[I-]	9.8

Tested on: HepG2
Experiment: Disruption of NM23-H2/c-MYC G quadruplex DNA interaction in human HepG2 cells at 1.25 uM incubated for 1 hr by ChIP assay
Assay type: cell-based
Conditions: not given

SMILES	Activity
C[n+]1c(/C=C/c2ccc3c(c2)c2ccccc2n3Cc2ccccc2)[se]c2ccccc21.[I-]	Active

Tested on: HepG2
Experiment: Inhibition of colony formation in human HepG2 cells at 1 uM measured after 14 days by crystal violet staining based assay
Assay type: functional, cell-based
Conditions: time 14.0 day

SMILES	inhibition
C[n+]1c(/C=C/c2ccc3c(c2)c2ccccc2n3Cc2ccccc2)[se]c2ccccc21.[I-]	Active

Tested on: HepG2
Experiment: Effect on cell cycle distribution in human HepG2 cells assessed as accumulation of cells in S phase at 1.25 to 5 uM incubated for 48 hrs by PI staining based flow cytometric analysis
Assay type: functional
Conditions: dose 1.25-5 µM

SMILES	Activity [%]
C[n+]1c(/C=C/c2ccc3c(c2)c2ccccc2n3Cc2ccccc2)[se]c2ccccc21.[I-]	14.6

Tested on: HepG2
Experiment: Induction of apoptosis in human hepG2 cells assessed as early apoptotic cells at 1.25 to 5 uM incubated for 48 hrs by Annexin V-FITC and propidium iodide staining based flow cytometric analysis
Assay type: functional
Conditions: dose 1.25-5 µM

SMILES	Activity [%]
C[n+]1c(/C=C/c2ccc3c(c2)c2ccccc2n3Cc2ccccc2)[se]c2ccccc21.[I-]	1.7

Tested on: not listed separately
Experiment: Toxicity in nude mouse assessed as changes in body weight at 30 mg/kg administered for 5 days
Assay type: organism-based
Conditions: in vivo, 120 h, time 5 day

SMILES	Activity
C[n+]1c(/C=C/c2ccc3c(c2)c2ccccc2n3Cc2ccccc2)[se]c2ccccc21.[I-]	Toxic

Tested on: not listed separately
Experiment: Toxicity in nude mouse assessed as mortality at 30 mg/kg administered for 5 days
Assay type: organism-based
Conditions: in vivo, 120 h, time 5 day

SMILES	Activity
C[n+]1c(/C=C/c2ccc3c(c2)c2ccccc2n3Cc2ccccc2)[se]c2ccccc21.[I-]	Toxic

Tested on: HepG2
Experiment: Antitumor activity against human HepG2 cells xenografted in BALB/C-nu/nu mouse assessed as reduction in tumor volume at 15 mg/kg, ip administered every other day for 28 days
Assay type: functional, organism-based
Conditions: time 28.0 day

SMILES	Activity
C[n+]1c(/C=C/c2ccc3c(c2)c2ccccc2n3Cc2ccccc2)[se]c2ccccc21.[I-]	Active

Tested on: HepG2
Experiment: Antitumor activity against human HepG2 cells xenografted in BALB/C-nu/nu mouse assessed as reduction in tumor weight at 15 mg/kg, ip administered every other day for 28 days
Assay type: functional, organism-based
Conditions: time 28.0 day

SMILES	Activity
C[n+]1c(/C=C/c2ccc3c(c2)c2ccccc2n3Cc2ccccc2)[se]c2ccccc21.[I-]	Active

Tested on: HepG2
Experiment: Antitumor activity against human HepG2 cells xenografted in BALB/C-nu/nu mouse assessed as tumor growth inhibition at 15 mg/kg, ip administered every other day for 28 days
Assay type: functional
Conditions: HepG2, 672 h, time 28 day, read-out: TGI

SMILES	inhibition in vivo at 15 mg/kg [%]
C[n+]1c(/C=C/c2ccc3c(c2)c2ccccc2n3Cc2ccccc2)[se]c2ccccc21.[I-]	65.8

Tested on: not listed separately
Experiment: Toxicity in BALB/C-nu/nu mouse xenografted with human HepG2 cells assessed as sign of pain at 15 mg/kg, ip administered every other day for 28 days
Assay type: organism-based
Conditions: in vivo, 672 h, time 28 day

SMILES	Activity
C[n+]1c(/C=C/c2ccc3c(c2)c2ccccc2n3Cc2ccccc2)[se]c2ccccc21.[I-]	Non-Toxic

Tested on: not listed separately
Experiment: Toxicity in BALB/C-nu/nu mouse xenografted with human HepG2 cells assessed as sign of distress at 15 mg/kg, ip administered every other day for 28 days
Assay type: organism-based
Conditions: in vivo, 672 h, time 28 day

SMILES	Activity
C[n+]1c(/C=C/c2ccc3c(c2)c2ccccc2n3Cc2ccccc2)[se]c2ccccc21.[I-]	Non-Toxic

Tested on: not listed separately
Experiment: Toxicity in BALB/C-nu/nu mouse xenografted with human HepG2 cells assessed as sign of discomfort at 15 mg/kg, ip administered every other day for 28 days
Assay type: organism-based
Conditions: in vivo, 672 h, time 28 day

SMILES	Activity
C[n+]1c(/C=C/c2ccc3c(c2)c2ccccc2n3Cc2ccccc2)[se]c2ccccc21.[I-]	Non-Toxic

Tested on: not listed separately
Experiment: Toxicity in BALB/C-nu/nu mouse xenografted with human HepG2 cells assessed as changes in body weight at 15 mg/kg, ip administered every other day for 28 days
Assay type: organism-based
Conditions: in vivo, 672 h, time 28 day

SMILES	Activity
C[n+]1c(/C=C/c2ccc3c(c2)c2ccccc2n3Cc2ccccc2)[se]c2ccccc21.[I-]	Non-Toxic

Tested on: not listed separately
Experiment: Toxicity in BALB/C-nu/nu mouse xenografted with human HepG2 cells assessed as abnormality in heart at 15 mg/kg, ip administered every other day for 28 days by hematoxylin and eosin staining method
Assay type: organism-based
Conditions: in vivo, 672 h, time 28 day

SMILES	Activity
C[n+]1c(/C=C/c2ccc3c(c2)c2ccccc2n3Cc2ccccc2)[se]c2ccccc21.[I-]	Non-Toxic

Tested on: not listed separately
Experiment: Toxicity in BALB/C-nu/nu mouse xenografted with human HepG2 cells assessed as abnormality in liver at 15 mg/kg, ip administered every other day for 28 days by hematoxylin and eosin staining method
Assay type: organism-based
Conditions: in vivo, 672 h, time 28 day

SMILES	Activity
C[n+]1c(/C=C/c2ccc3c(c2)c2ccccc2n3Cc2ccccc2)[se]c2ccccc21.[I-]	Non-Toxic

Tested on: not listed separately
Experiment: Toxicity in BALB/C-nu/nu mouse xenografted with human HepG2 cells assessed as abnormality in spleen at 15 mg/kg, ip administered every other day for 28 days by hematoxylin and eosin staining method
Assay type: organism-based
Conditions: in vivo, 672 h, time 28 day

SMILES	Activity
C[n+]1c(/C=C/c2ccc3c(c2)c2ccccc2n3Cc2ccccc2)[se]c2ccccc21.[I-]	Non-Toxic

Tested on: not listed separately
Experiment: Toxicity in BALB/C-nu/nu mouse xenografted with human HepG2 cells assessed as abnormality in lung at 15 mg/kg, ip administered every other day for 28 days by hematoxylin and eosin staining method
Assay type: organism-based
Conditions: in vivo, 672 h, time 28 day

SMILES	Activity
C[n+]1c(/C=C/c2ccc3c(c2)c2ccccc2n3Cc2ccccc2)[se]c2ccccc21.[I-]	Non-Toxic

Tested on: not listed separately
Experiment: Toxicity in BALB/C-nu/nu mouse xenografted with human HepG2 cells assessed as abnormality in kidney at 15 mg/kg, ip administered every other day for 28 days by hematoxylin and eosin staining method
Assay type: organism-based
Conditions: in vivo, 672 h, time 28 day

SMILES	Activity
C[n+]1c(/C=C/c2ccc3c(c2)c2ccccc2n3Cc2ccccc2)[se]c2ccccc21.[I-]	Non-Toxic

Tested on: HepG2
Experiment: Antitumor activity against human HepG2 cells xenografted in BALB/C-nu/nu mouse assessed as decrease in c-MYC expression in tumor tissue at 15 mg/kg, ip administered every other day for 28 days by immunohistochemical analysis
Assay type: functional, organism-based
Conditions: time 28.0 day

SMILES	Activity
C[n+]1c(/C=C/c2ccc3c(c2)c2ccccc2n3Cc2ccccc2)[se]c2ccccc21.[I-]	Active

Tested on: Quadruplex DNA
Experiment: Binding affinity to G-quadruplex DNA pu22 (unknown origin) assessed as melting temperature at 10 uM by circular dichroism analysis
Conditions: not given

SMILES	Tm [°C]
C[n+]1c(/C=C/c2ccc3c(c2)c2ccccc2n3Cc2ccccc2)[se]c2ccccc21.[I-]	78.3
